Patent publication US20170281799A1, “SYSTEMS AND METHODS FOR SCREENING OTOTOXIC, OTOPROTECTIVE, AND OTOREGENERATIVE COMPOUNDS USING AQUATIC MODELS” (ARIZONA BOARD OF REGENTS ON BEHALF OF THE UNIVERSITY OF …, priority 2014, published 2017)
Entries after “also recorded” stand apart in the source; their conditions may differ.

Tests used:
[1] = system: zebrafish; assay: Rheotaxis behavior with next generation video imaging and semi-automated image analysis; type: in vivo, Danio rerio
Excerpt: Sulforaphane, a naturally occurring molecule within the isothiocyanate group of organosulfur compounds, is present within cruciferous vegetables such as broccoli. Low doses of SF induce production of antioxidant enzymes such as glutathione transferases, UDP-glucuronyltransferase, NAD(P)H:quinone oxidoreductase I and heme oxygenase-1 (HO-1) via NRF2 mediated activation of ARE promoters upstream from their genes—thereby allowing a diverse array of electrophilic and oxidative toxicants to be eliminated in a coordinated manner. Four-and-half dpf larvae were incubated in sulforaphane at a concentration of 10 μM for 12 hours and subsequently incubated for 4 hours in 1000 μM cisplatin (SF10/Cis 1000). An SF-alone (SF10/Cis 0) group and DMSO vehicle controls (DMSO/Cis 1000; DMSO/Cis 0) were also tested. To assess the otoprotective effects of SF on hair cell anatomy, aggregate neuromast damages were determined for each treatment group.

[2] = system: zebrafish; assay: Behavioral assay: rheotaxis in swimming test apparatus; type: in vivo, Danio rerio
Excerpt: The custom-built behavioral apparatus consists of 6 experimental lanes with laminar flow velocity controlled at 0.15 cm/sec, allowing the simultaneous testing of up to 6 differing experimental conditions. Each lane measures 10.2 cm in height×9.9 cm in width×25.4 cm in length. Lanes are partitioned with metal mesh dividers to contain fish in one central area, measuring 5.0 cm length×9.9 cm width, allowing for image capture (FIG. 3). E2 medium flows from a header tank through the experimental lanes to a media reserve tank and is then recycled via pump back to the header tank. The pump is used to overdrive a header standpipe, resulting in constant pressure that is split evenly between the lanes, controlling the flow. A heater located in the reserve media tank maintains temperature at 28±0.5° C. Total system volume capacity (experimental apparatus+header and reserve tanks) is approximately 210 L, while operating volume is 152 L. The flow is calibrated as follows: lane width (9.9 cm)×total number of lanes (6)×operational water height (5.8 cm)×desired flow (0.15 cm/sec)=flow rate of 51.7 cubic centimeters/seconds. Water traveling from experimental lanes to the reserve media tank is received in a 1000 mL beaker and the rate of water flow is adjusted until it takes 19.3 seconds to fill the beaker to 1000 mL. Flow speed is calibrated before every experiment. With the system calibrated, flow may then be turned on or off via a separate valve, without any further adjustments.
The experimental system is housed in a cabinet creating a condition free of ambient light, thus negating any influence of visual input on zebrafish swimming behavior. Infrared light provides lighting from which images were acquired. Video capture is accomplished with under-mounted Samsung SCB-200 high-resolution video cameras (FIG. 3). In conducting the assay, five-day post fertilization (5 dpf) zebrafish are treated with several different experimental conditions (see below for detailed methods), rinsed three times in embryo medium, transferred to the experimental lanes, and the cabinet is then closed for 30 minutes to allow for dark adaptation. Image acquisition begins with 2 minutes of filming under no-flow conditions, next the water flow is turned on and the fish are allowed 1 minute to acclimate to the flow and then 2 minutes of flow behavior is recorded (FIG. 4).
Rheotaxis was defined as fish oriented headfirst, with an axial alignment within 30 degrees on either side of the directional flow vector and attempting to swim into the current. […] From the still images, the angle of every fish was measured using ImageJ and placed into an Excel spreadsheet for data processing (FIG. 6). […] Therefore, there were no negative values or angles measured between 181-360 degrees. […]

[3] = system: lateral line hair cells; assay: Anatomical assay: YO-PRO1 staining, aggregate neuromast damage score; settings: for Anatomical Assay Damage Score (Mean ± S.D.): score 0-21 per fish
Experimental: Following the drug exposure (see below for detailed methods), larvae were fluorescently stained/labeled in embryo medium containing 6 μM YO-PRO1 (Invitrogen; Y3603) for 20 min. YO-PRO1 is a common vital dye used for staining viable lateral line hair cells in zebrafish (Coffin A B, et al., Zebrafish. 2010 March; 7(1):3-11; Ou H C, et al., Drug Discov Today. 2010 April; 15(7-8):265-71; Ou H C, et al., Hear Res. 2007 November; 233(1-2):46-53; Santos F, et al., Hear Res. 2006 March; 213(1-2):25-33). Concentration and duration were optimized for this purpose. After labeling, the larvae were rinsed three times in embryo media and then anesthetized using 0.5 mM of MS-222 (Tricaine Methanesulfonate, Western Chemical Inc.) (Buck L M, et al., Hear Res. 2012 February; 284(1-2):67-81). The larvae were fixed in 2% paraformaldehyde for 1 hour at room temperature and stored in PBS overnight at 4° C. Fixed larvae were then mounted in 6% methylcellulose (Sigma; M7140) in 0.2 mm silicone chambers and covered with No. 1.5 cover glass (Warner Instruments; 64-0718) for confocal microscopy. Larvae were observed under a confocal microscope (Leica SP5) using 20× dry and 40× oil immersion lenses.
Treatment groups consisted of 3-7 fish. Seven ventral neuromasts of the posterior lateral line (P3, P4, P5, P6, P7, P8, and P9) were selected for determination of the “neuromast damage score” per fish (FIG. 1). Each neuromast was scored from 0 to 3. A score of 0 represents no damage with normal staining; 1 represents mild damage with moderate staining; 2 represents severe damage with poor staining; 3 represents total hair cell/neuromast destruction with no staining (FIG. 2). Seven scores per fish were then added to generate the total “aggregate neuromast damage score.” The lowest possible score for an individual fish is 0, representing no damage, with the highest possible score for a fish being 21, representing complete damage. Separate individuals (scorer A, B and C) were trained in the counting technique and “neuromast damage scores” were generated independently with blinding of experimental conditions to insure unbiased assessment. The mean score of the three evaluators was used to determine the final “neuromast damage score.” Inter-scorer variation was validated by using the Pearson's correlation coefficient.
In order to establish the sensitivity of the newly developed behavior assay for detecting damage caused by varying doses of cisplatin, a cisplatin dose-dependent exposure experiment was prepared. Cisplatin solutions were prepared from powder (Sigma; P4394) in embryo medium. Five dpf larvae were incubated in cisplatin at concentrations of 0, 250, 500, 750, or 1000 μM (Cis 0, Cis 250, Cis 500, Cis 750, and Cis 1000, respectively) for 4 hours at room temperature or 28±0.5° C. then rinsed 3 times in embryo media.
In order to assess the effect of dexamethasone on cisplatin-induced ototoxicity using the behavior/anatomical assay technique, dexamethasone pre-exposure groups were prepared. Dexamethasone (Sigma; D4902) stock solution (25 mg/ml) was prepared with DMSO (Dimethyl Sulphoxide, Sigma; D2650) and diluted with embryo medium. Four-and-half dpf larvae were incubated in dexamethasone at a concentration of 5 μM for 12 hours at 28.5±0.5° C. and subsequently rinsed in embryo media. Four-and-half dpf fish were used to allow for a half-day of maturation to ensure all fish would be 5 dpf at time of behavioral/anatomical testing. […]

[4] = dexamethasone 5 μM 12 hours alone, no cisplatin
[5] = dexamethasone 5 μM pre-exposure 12 hours, then cisplatin 1000 μM 4 hours

For `N.N.[Cl][Pt][Cl]` [Cis, cisplatin], the rheotaxis index ([1]; cisplatin 1000 μM, new image analysis techniques, controls >85%) was 45% and the “rheotaxis performance versus cisplatin dosage (in words)” value ([2]; in vivo) was “clear linear correlation was found between increasing cisplatin dosage and decreased rheotaxis performance”.
With `C[C@@H]1C[C@H]2[C@@H]3CCC4=CC(=O)C=C[C@]4(C)[C@@]3(F)[C@@H](O)C[C@]2(C)[C@@]1(O)C(=O)CO` [Dex, dexamethasone] the “hair cell damage caused by dexamethasone alone (in words)” value ([3]; Dex 5/Cis 0) was “no hair cell damage; also recorded: no statistically significant difference between Cis 0 and Dex 5/Cis 0”, the “Anatomical Assay Damage Score (Mean ± S.D.)” value [3, 4] was 2.40 ± 0.64 and the “Anatomical Assay Damage Score (Mean ± S.D.)” value [3, 5] was 5.20 ± 1.53. The “damage by dexamethasone-alone treatment, rheotaxis (in words)” value ([2]; Dex 5/Cis 0) was “No damage was induced”, the “Behavioral Assay Rheotaxia Index (%) (Mean ± S.D.)” value [2, 4] was 35.6 ± 12.5% and the “Behavioral Assay Rheotaxia Index (%) (Mean ± S.D.)” value [2, 5] was 25.5 ± 5.2%.
With `C[S+]([O-])CCCCN=C=S` (centres unmarked) [sulforaphane] the “effect of pre-exposure on rheotaxis after cisplatin (in words)” value ([1]; SF10/Cis 1000) was “dramatically improved the ability of fish to perform rheotaxis”, the “hair cell damage caused by sulforaphane alone (in words)” value ([3]; SF10/Cis 0: 10 μM, 12 hours) was “caused no hair cell damage” and the “rescue of hair cell architecture against cisplatin (in words)” value ([3]; SF10/Cis 1000: 10 μM 12 hours, then 1000 μM cisplatin 4 hours) was “partial rescue of hair cell architecture”.
